Results as given in PubChem BioAssay AID743395 (Broad Institute, 2014).

Tested on: HepG2 viability, CellTiter-Glo ATP luminescence, 72 h
Assay: HepG2 cell cytotoxicity, dose response, cytotoxicity control, CellTiter-Glo luminescence, cherry-pick, set 2 (AID 743395)

Compound: COc1ccc(CCNc2ncnc3c2oc2ccccc23)cc1OC
- AC35: 11.3 µM

Compound: O=C(NCCOc1ccccc1)c1cc([N+](=O)[O-])ccc1N1CCOCC1
- AC35: 6.79 µM

Compound: CC(=O)Nc1ccc2cc3ccc(NC(C)=O)cc3nc2c1
- AC35: 11.6 µM

Compound: CCOC(=O)c1c(NC(=O)C2c3ccccc3Oc3ccccc32)sc(C(C)=O)c1C
- AC35: 17.6 µM

Compound: COc1ccc(-c2ccc3c(c2)[C@H]2[C@H](CCN2S(=O)(=O)c2ccc(OC)cc2)[C@@H](CO)N3)cc1
- AC35: 14.5 µM

Compound: C[C@H]1CCC/C=C/[C@@H]2C[C@H](O)C[C@H]2[C@H](O)/C=C/C(=O)O1
- AC35: 0.115 µM

Compound: C[C@@H]1CN([C@@H](C)CO)C(=O)c2cc(NS(=O)(=O)c3ccc(Cl)cc3)ccc2O[C@@H]1CN(C)Cc1ccc(C(F)(F)F)cc1
- AC35: 16.4 µM

Compound: CCCC(=O)NC(c1ccc(C(C)C)cc1)c1ccc2cccnc2c1O (stereo unspecified)
- AC35: 0.948 µM

Compound: COc1ccc(C2=Nn3c(nnc3-c3ccccc3OC)SC2)cc1OC1CCOC1 (stereo unspecified)
- AC35: 7.54 µM

Compound: CCCC(=O)NC(c1ccc(N(C)C)cc1)c1ccc2cccnc2c1O (stereo unspecified)
- AC35: 1.18 µM

Compound: C=CCN1c2ccccc2[C@]23C[C@@H](C(=O)OC)N(C(=O)c4cccs4)C2=NC(C(=O)OC)=C(C(=O)OC)[C@H]13
- AC35: 19.1 µM

Compound: COc1ccccc1NC(=O)CSc1ccc(-c2ccccn2)nn1
- AC35: 20.4 µM

Compound: COc1ccc(S(=O)(=O)N2CC[C@@H]3[C@@H](CO)Nc4ccc(-c5cccc(C#N)c5)cc4[C@@H]32)cc1
- AC35: 14 µM

Compound: Cc1onc(-c2ccccc2Cl)c1C(=O)N1CCN(c2cccc(Cl)c2)CC1
- AC35: 13.5 µM

Compound: Cc1ccc(OCCNC(=O)c2cccc(S(=O)(=O)NCc3ccccc3)c2)cc1
- AC35: 15.2 µM

Compound: COc1cc(OC)cc(-c2nc3ccccc3c(=O)n2OC(=O)c2ccc(C)c(C)c2)c1
- AC35: 21.5 µM

Compound: Cc1ccc(CNC(=O)c2ccc3c(=O)c(O)c(-c4ccc(C)cc4)[nH]c3c2)cc1
- AC35: 1.9 µM

Compound: COc1ccc(OC)c(Nc2cc(C)nc3ccc(C)cc23)c1
- AC35: 2.93 µM

Compound: O=C(CCCN1CCC(O)(c2cccc(C(F)(F)F)c2)CC1)c1ccc(F)cc1
- AC35: 22.2 µM

Compound: Cc1cccc(N2CCN(S(=O)(=O)c3cc(-c4cc(C)no4)ccc3C)CC2C)c1 (stereo unspecified)
- AC35: 17.4 µM

Compound: C[C@@H]1CN([C@H](C)CO)C(=O)c2cc(NS(=O)(=O)c3ccc(Cl)cc3)ccc2O[C@@H]1CN(C)Cc1ccc(-c2ccccc2)cc1
- AC35: 16.8 µM

Compound: COc1ccc(C2C3=C(COC3=O)Oc3cc4c(cc32)OCO4)cc1OC (stereo unspecified)
- AC35: 10.9 µM

Compound: COc1ccc(-c2cc(NC=O)c3ncc(-c4ccc(OC)c(OC)c4)n3c2)cc1
- AC35: 6.95 µM

Compound: COC(C(=O)C(O)C(C)O)C1Cc2cc3cc(OC4CC(OC5CC(O)C(O)C(C)O5)C(O)C(C)O4)c(C)c(O)c3c(O)c2C(=O)C1OC1CC(OC2CC(OC3CC(O)C(OC)C(C)O3)C(O)C(C)O2)C(O)C(C)O1 (stereo unspecified)
- AC35: 0.148 µM

Compound: COc1cc(C#Cc2ccc3cc(CCCO)oc(=O)c3c2)cc(OC)c1
- AC35: 6.25 µM

Compound: COc1ccccc1NC(=S)N(Cc1ccco1)Cc1cc2cc(C)cc(C)c2[nH]c1=O
- AC35: 11.6 µM

Compound: CN(C)CCCN(C(=O)c1ccco1)c1nc(-c2ccc(Cl)cc2)cs1
- AC35: 22.2 µM

Compound: Cc1cccc(N(C)C(=O)c2cc3c(=O)[nH]c4ccc(C)cc4c3s2)c1
- AC35: 4.26 µM

Compound: NS(=O)(=O)c1ccc(CCNc2nn3c(-c4cccc(OC(F)(F)F)c4)cnc3s2)cc1
- AC35: 16.7 µM

Compound: CN1c2ccc(-c3ccc(F)cc3)cc2[C@H]2[C@H](CCN2S(=O)(=O)c2cccc(F)c2)[C@@H]1CO
- AC35: 17.3 µM

Compound: O=C1c2ccc3c4c(ccc(c24)C(=O)N1CCCCO)C(=O)N(CCCCO)C3=O
- AC35: 2.63 µM

Compound: CC(=NNC(=S)N1CC2CCC(CC2)C1)c1cnccn1
- AC35: 0.171 µM

Compound: Cc1ccc(C(=O)N/N=C/c2cc(Br)ccc2O)cn1
- AC35: 17.8 µM

Compound: COc1cc(OC)cc(-c2cc3ccc(OC)cc3cn2)c1
- AC35: 4.68 µM

Compound: Cc1ccc(C2NC(=O)c3ccccc3N2)c(C)c1 (stereo unspecified)
- AC35: 13.8 µM

Compound: C[C@H]1CN([C@@H](C)CO)C(=O)Cc2cc(NC(=O)Nc3ccc(C(F)(F)F)cc3)ccc2O[C@H]1CN(C)S(=O)(=O)c1ccccc1
- AC35: 10.1 µM

Compound: O=C(c1cc(-c2ccncc2)nc2c(Cl)cccc12)N1CCN(c2ccccc2F)CC1
- AC35: 8.73 µM

Compound: N#CC1=C(N)Oc2cc(N)ccc2C1c1cccc(F)c1 (stereo unspecified)
- AC35: 6.38 µM

Compound: COc1ccc(-c2csc(NC(=S)NC(=O)/C=C/c3ccco3)n2)cc1OC
- AC35: 14.3 µM

Compound: Cc1ccc2c(C)c3ccc4ccccc4c3c[n+]2c1
- AC35: 5.47 µM

Compound: Cc1ncc(CO)c(/C=N/Nc2ccc(C(F)(F)F)cn2)c1O
- AC35: 4.63 µM

Compound: O=C(NN=C1CCCC1)c1[nH]c2ccc(Cl)cc2c1-c1ccccc1
- AC35: 18.9 µM

Compound: CCN(CC)CCn1nc2c3c(cccc3c1=O)-c1ccccc1-2
- AC35: 2.82 µM

Compound: O=C(c1cccc(S(=O)(=O)N2CCN(c3ccc(F)cc3)CC2)c1)N1CCCC(C(F)(F)F)C1 (stereo unspecified)
- AC35: 9.64 µM

Compound: CCc1ccc(OCc2n[nH]c(=S)n2C(C)CCCC(C)C)cc1 (stereo unspecified)
- AC35: 13.9 µM

Compound: C/C(=N\Nc1ncnc2sc(C)c(C)c12)c1ccccn1
- AC35: 0.572 µM

Compound: O=C1C=CCC(/C=C/c2ccccc2)O1 (stereo unspecified)
- AC35: 19 µM

Compound: COc1ccc(CCNc2c3ccccc3nc3ccccc23)cc1OC
- AC35: 6.93 µM

Compound: CCN(CC)CCC(=O)Nc1cccc2c1C(=O)c1ccccc1C2=O
- AC35: 6.39 µM

Compound: C[C@@H]1CN([C@@H](C)CO)C(=O)c2cc(C#CCN(C)C)cnc2O[C@H]1CN(C)Cc1ccc(-c2ccccc2)cc1
- AC35: 11.5 µM

Compound: COc1ccc(C(=O)OCC(=O)N2C(C)CCCC2C)cc1S(=O)(=O)N1CCOCC1 (stereo unspecified)
- AC35: 18.7 µM

Compound: Cc1cc(/C=N/n2c(COc3ccccc3C)nc3ccccc3c2=O)c(O)c([N+](=O)[O-])c1
- AC35: 8.05 µM

Compound: CCOC(=O)c1c(NC(=O)C(=O)N/N=C/c2ccccc2O)sc2c1CCCCC2
- AC35: 13.7 µM

Compound: COc1ccc(OC)c(-c2cc(-c3cccnc3)nc(N)c2C#N)c1
- AC35: 10.6 µM

Compound: O=S(=O)(Cc1ccc(Cl)cc1Cl)c1ccc(Cl)cc1
- AC35: 11.3 µM

Compound: COc1ccccc1NC(=S)NN=C(C)c1ccccn1
- AC35: 0.0927 µM

Compound: Cc1ccc2[nH]c(-c3ccccc3)cc(=O)c2c1
- AC35: 5.6 µM

Compound: CCCC(=O)NC(c1ccc(Cl)cc1)c1ccc2cccnc2c1O (stereo unspecified)
- AC35: 1.77 µM

Compound: CC(C)(C)N(Cc1ccccc1)C(=O)c1cc2ccccc2o1
- AC35: 16.1 µM

Compound: COc1c(C=O)c2c(c(OC)c1OC)-c1ccc(OC)c(=O)cc1C(NC(C)=O)CC2 (stereo unspecified)
- AC35: 3.12 µM

Compound: CCc1ccc(N2CC(C(=O)Nc3ccccc3N3CCCC3)CC2=O)cc1 (stereo unspecified)
- AC35: 10.8 µM

Compound: CN1c2ccc(-c3ccc(F)cc3)cc2[C@H]2[C@H](CCN2S(=O)(=O)c2ccc(F)cc2)[C@H]1CO
- AC35: 19.5 µM

Compound: Cc1ccc(-c2nn(-c3ccccc3)cc2C(=O)N2CCN(c3ccccn3)CC2)cc1
- AC35: 12.3 µM

Compound: Cc1ccc(COc2ccccc2-c2cc(C(=O)N/N=C/c3cccnc3)[nH]n2)cc1
- AC35: 14.7 µM

Compound: COc1ccccc1NC1=C(NC(C)=O)C(=O)c2ccccc2C1=O
- AC35: 12.2 µM

Compound: COc1ccc(C(=O)NCCN(C)C)c2nc3ccccc3cc12
- AC35: 2.81 µM

Compound: COc1ccc([C@H]2CC(=O)C=C(c3ccc(OC)cc3OC)C2)cc1
- AC35: 7.54 µM

Compound: CC/C=C/CC(=O)N[C@@H](c1ccccc1)[C@@H](O)C(=O)O[C@H]1C[C@@]2(O)[C@@H](OC(=O)c3ccccc3)C3[C@](C)(C(=O)[C@H](OC(C)=O)C(=C1C)C2(C)C)[C@@H](O)C[C@H]1OC[C@@]31OC(C)=O (stereo partly specified)
- AC35: 1.98 µM

Compound: Cc1ccc(S(=O)(=O)NCCCNS(=O)(=O)c2ccc(C)cc2)cc1
- AC35: 20 µM

Compound: O=C(OCc1ccc(Br)cc1)c1cc([N+](=O)[O-])ccc1N1CCOCC1
- AC35: 10.8 µM

Compound: COc1ccc(-c2ccc3c(c2)[C@H]2[C@H](CCN2S(=O)(=O)c2ccc(OC)cc2)[C@@H](CO)N3C)cc1
- AC35: 18.2 µM
